Laboratory results as given in ChEMBL document CHEMBL1201862, “PubChem BioAssay data set” (2004).
Activity calls are given as the source filed them.

Assays:
[1] = ZM109 Env clade C HIV-1 fusion inhibitors, dose response, HeLa effector, CEM target cells, luciferase, cherry-pick (AID 652058); type: functional, cell-based
Mucolipin-3 = Mucolipin-3 (Homo sapiens, UniProt Q8TDD5); assay: Dose response cell-based high-throughput screening assay for agonists of the transient receptor potential channel ML3 (TRPML3). [Related pubchem assays: 1526, 1424, 1448 ]; type: functional
[2] = inhibitors of HIV Env-driven cell fusion, dose response, cherry-pick (AID 652057); type: functional, cell-based
[3] = off-target signal loss in HeLa-CEM21 co-culture – HeLa F-luc CTL cells, cherry-picked, counter-screen for HIV-1 Env fusion inhibitor project, dose response (AID 652040); type: functional, cell-based;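 also: potency for signal decrease marking cytotoxic or nonspecific inhibition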
[4] = inhibitors of clade B AD8 Env fusion, dose response, cell-based, cherry-pick (AID 652062); type: functional;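 also: luciferase signal from cell-cell fusion driven by HIV-1 clade B AD8 Env; potency is for inhibitors of fusion seen as a drop in luminescence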
Ion channel NompC = Ion channel NompC (Danio rerio, UniProt Q7T1G6); assay: Fluorescence counterscreen assay for TRPML3 agonists: dose response cell-based high-throughput screening assay to identify agonists of the transient receptor potential channel N1 (TRPN1). [Related pubchem assays: 1526, 1424, 1448 ]; type: functional
[5] = HEp-2 cell cytotoxicity, dose response, cytotoxicity control for RSV inhibitor project, HTS (AID 2410); type: functional; conditions: human respiratory syncytial virus
[6] = inhibitors of intracellular T. cruzi replication, confirmation, NIH3T3 host cells, beta-gal luminescence (AID 2044); type: functional, cell-based;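 also: intracellular parasites grown in NIH/3T3 mouse fibroblasts as host cells; luminescent beta-galactosidase reporter signal from transgenic T. cruzi replicating inside host cells; inhibitors lower the luminescence signal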
[7] = molecular target: Peroxisome proliferator-activated receptor gamma/Nuclear receptor coactivator 2 (Homo sapiens, UniProt P37231); type: functional;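 also: agonist potency for raising coactivator recruitment to the receptor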
[8] = molecular target: G-protein coupled receptor 35 (Homo sapiens, UniProt Q9HC97); assay: GPR35 antagonists blocking zaprinast-driven arrestin recruitment, primary screen, imaging, U2OS, beta-arrestin-GFP, zaprinast agonist (AID 2058); type: functional;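 also: antagonist potency meaning inhibition of agonist-induced arrestin redistribution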
[9] = cytotoxicity toward NIH3T3 fibroblasts, dose response, counter-screen, cell-based, ATP luminescence, mouse fibroblasts (AID 2010); type: functional;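 also: cells exposed to compound for about 90 hours before reading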
Streptococcus = assay: Group A Streptococcus viability loss, dose response, counter-screen for streptokinase expression inhibitor project, luminescence, BacTiterGlo (AID 1915); type: functional, organism-based;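 also: potency for reduction of bacterial viability or growth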
[10] = molecular target: Peroxisome proliferator-activated receptor gamma/Nuclear receptor coactivator 3 (Homo sapiens, UniProt P37231); type: functional;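 also: agonist potency for raising coactivator recruitment to the receptor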
Streptokinase A = molecular target: T1, Streptokinase A (Streptococcus pyogenes serotype M1, UniProt P10520); assay: S. pyogenes streptokinase expression inhibitors, potency, dose response, plasminogen activation absorbance, OD405 (AID 1914); type: functional, Streptococcus pyogenes M1 GAS;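 also: secreted streptokinase activity via plasminogen activation per viability signal from cell pellet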
T1 sequence (P10520 whole entry): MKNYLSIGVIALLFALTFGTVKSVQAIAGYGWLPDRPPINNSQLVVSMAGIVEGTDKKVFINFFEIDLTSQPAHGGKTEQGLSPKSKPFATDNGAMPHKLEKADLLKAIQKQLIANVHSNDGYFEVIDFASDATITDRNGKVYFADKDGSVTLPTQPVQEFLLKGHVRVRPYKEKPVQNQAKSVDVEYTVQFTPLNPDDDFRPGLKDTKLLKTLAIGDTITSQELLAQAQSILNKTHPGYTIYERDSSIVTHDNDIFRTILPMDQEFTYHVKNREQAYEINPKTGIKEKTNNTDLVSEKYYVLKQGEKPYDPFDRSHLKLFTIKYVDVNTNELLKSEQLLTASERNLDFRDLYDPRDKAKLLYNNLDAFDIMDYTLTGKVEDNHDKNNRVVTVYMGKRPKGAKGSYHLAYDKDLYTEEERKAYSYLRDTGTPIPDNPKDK

[11] = molecular target: Peroxisome proliferator-activated receptor gamma/Nuclear receptor coactivator 1 (Homo sapiens, UniProt P37231); type: functional;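 also: agonist potency as compounds enhance coactivator SRC-1 recruitment to PPARgamma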
[12] = molecular target: Voltage-dependent T-type calcium channel subunit alpha-1H (Homo sapiens, UniProt O95180); type: functional;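 also: channel activity triggered by adding a high calcium stimulation buffer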
[13] = system: Streptococcus sp. 'group A'; assay: growth inhibition of control SK(-) GAS strain, dose response, counter-screen for streptokinase expression inhibitor project, luminescence, kanamycin, BacTiterGlo, confirmation (AID 1900); type: functional, organism-based
[14] = Luminescence Cell-Based Dose Response HTS to Identify Activators of Luciferase Translation or Activity in H4 […] Cells. [Related pubchem assays: 1829 (Project Summary), 1814 (Primary HTS)]; type: functional
[15] = Luminescence Cell-Based Dose Confirmation to Identify Activators of 5'UTR Stem-Loop Driven Alpha-Synuclein mRNA Translation in H4 Neuroglioblastoma Cells. [Related pubchem assays: 1829 (Project Summary), 1814 (Primary HTS)]; type: functional
[16] = Luminescence Cell-Based Dose Response to Identify Activators of Luciferase Translation or Activity in H4-C Neuroglioblastoma Cells. [Related pubchem assays: 1829 (Project Summary), 1814 (Primary HTS)]; type: functional
[17] = molecular target: T2, Calpain-2 catalytic subunit (Sus scrofa, UniProt P43367); assay: pig calpain II inhibitor potency, dose response, biochemical, fluorogenic peptide substrate (AID 1420); type: functional
T2 sequence (P43367 whole entry): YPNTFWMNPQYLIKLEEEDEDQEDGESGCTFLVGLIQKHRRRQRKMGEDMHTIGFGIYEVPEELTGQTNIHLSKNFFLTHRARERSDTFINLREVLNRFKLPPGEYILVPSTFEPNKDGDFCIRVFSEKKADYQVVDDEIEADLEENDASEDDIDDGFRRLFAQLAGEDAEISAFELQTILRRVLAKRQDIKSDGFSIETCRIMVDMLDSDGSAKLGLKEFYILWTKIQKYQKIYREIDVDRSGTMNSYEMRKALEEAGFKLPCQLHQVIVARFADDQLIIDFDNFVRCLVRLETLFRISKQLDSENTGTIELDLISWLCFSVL

[18] = molecular target: Luciferin 4-monooxygenase (Photinus pyralis, UniProt P08659); assay: Counter Screen for Luciferase-based Assay Positives. [Related pubchem assays: 620, 618, 411 ]
[19] = Luminescence Cell-Based Dose Response to Identify Activators of 5'UTR Stem-Loop Driven Prion Protein mRNA Translation in H4-C Neuroglioblastoma Cells. [Related pubchem assays: 1829 (Project Summary), 1814 (Primary HTS)]; type: functional
HT-1080 = assay: cytotoxicity in HT1080 fibrosarcoma cells, cell-based, fluorescence readout (AID 620); type: functional; conditions: Homo sapiens

G-protein coupled receptor 35, sequence (Q9HC97 whole entry): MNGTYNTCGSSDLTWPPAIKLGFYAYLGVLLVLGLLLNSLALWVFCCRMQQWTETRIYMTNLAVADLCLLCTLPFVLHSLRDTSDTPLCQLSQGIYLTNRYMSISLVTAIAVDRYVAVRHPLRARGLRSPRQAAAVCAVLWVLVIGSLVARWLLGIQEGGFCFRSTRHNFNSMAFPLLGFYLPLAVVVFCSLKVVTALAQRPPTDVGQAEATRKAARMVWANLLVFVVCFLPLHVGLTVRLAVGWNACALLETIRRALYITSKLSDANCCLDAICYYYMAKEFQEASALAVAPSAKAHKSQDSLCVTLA
Luciferin 4-monooxygenase, sequence (P08659 whole entry): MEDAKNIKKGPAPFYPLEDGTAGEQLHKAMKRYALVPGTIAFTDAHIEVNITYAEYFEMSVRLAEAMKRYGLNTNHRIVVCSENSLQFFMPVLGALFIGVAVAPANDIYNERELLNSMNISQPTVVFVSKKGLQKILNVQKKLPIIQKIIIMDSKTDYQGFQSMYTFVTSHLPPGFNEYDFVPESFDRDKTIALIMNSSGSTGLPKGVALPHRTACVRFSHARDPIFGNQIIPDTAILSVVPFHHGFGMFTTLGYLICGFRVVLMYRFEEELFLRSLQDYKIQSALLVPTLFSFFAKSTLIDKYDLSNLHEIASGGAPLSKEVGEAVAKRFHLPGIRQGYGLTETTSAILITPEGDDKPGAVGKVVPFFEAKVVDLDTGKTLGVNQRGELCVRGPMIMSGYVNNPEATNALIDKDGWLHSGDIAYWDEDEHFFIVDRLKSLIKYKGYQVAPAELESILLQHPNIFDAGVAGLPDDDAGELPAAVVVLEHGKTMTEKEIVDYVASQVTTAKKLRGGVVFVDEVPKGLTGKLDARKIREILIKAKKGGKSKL
Peroxisome proliferator-activated receptor gamma/Nuclear receptor coactivator 3, sequence (P37231 whole entry): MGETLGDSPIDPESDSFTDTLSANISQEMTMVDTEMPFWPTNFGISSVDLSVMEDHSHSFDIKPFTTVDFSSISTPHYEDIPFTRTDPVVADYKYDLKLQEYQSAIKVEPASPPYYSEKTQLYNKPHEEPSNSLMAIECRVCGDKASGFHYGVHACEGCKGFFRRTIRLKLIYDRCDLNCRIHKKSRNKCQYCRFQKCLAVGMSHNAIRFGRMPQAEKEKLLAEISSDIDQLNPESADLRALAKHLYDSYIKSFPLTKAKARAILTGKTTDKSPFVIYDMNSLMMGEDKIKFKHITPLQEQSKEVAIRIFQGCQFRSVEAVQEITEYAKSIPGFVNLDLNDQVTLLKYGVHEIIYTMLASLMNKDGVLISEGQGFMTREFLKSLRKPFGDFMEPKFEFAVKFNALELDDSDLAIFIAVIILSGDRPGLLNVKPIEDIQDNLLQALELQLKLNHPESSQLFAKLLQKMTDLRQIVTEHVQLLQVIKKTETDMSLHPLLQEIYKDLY
Peroxisome proliferator-activated receptor gamma/Nuclear receptor coactivator 3, sequence (Q9Y6Q9 whole entry, further chain): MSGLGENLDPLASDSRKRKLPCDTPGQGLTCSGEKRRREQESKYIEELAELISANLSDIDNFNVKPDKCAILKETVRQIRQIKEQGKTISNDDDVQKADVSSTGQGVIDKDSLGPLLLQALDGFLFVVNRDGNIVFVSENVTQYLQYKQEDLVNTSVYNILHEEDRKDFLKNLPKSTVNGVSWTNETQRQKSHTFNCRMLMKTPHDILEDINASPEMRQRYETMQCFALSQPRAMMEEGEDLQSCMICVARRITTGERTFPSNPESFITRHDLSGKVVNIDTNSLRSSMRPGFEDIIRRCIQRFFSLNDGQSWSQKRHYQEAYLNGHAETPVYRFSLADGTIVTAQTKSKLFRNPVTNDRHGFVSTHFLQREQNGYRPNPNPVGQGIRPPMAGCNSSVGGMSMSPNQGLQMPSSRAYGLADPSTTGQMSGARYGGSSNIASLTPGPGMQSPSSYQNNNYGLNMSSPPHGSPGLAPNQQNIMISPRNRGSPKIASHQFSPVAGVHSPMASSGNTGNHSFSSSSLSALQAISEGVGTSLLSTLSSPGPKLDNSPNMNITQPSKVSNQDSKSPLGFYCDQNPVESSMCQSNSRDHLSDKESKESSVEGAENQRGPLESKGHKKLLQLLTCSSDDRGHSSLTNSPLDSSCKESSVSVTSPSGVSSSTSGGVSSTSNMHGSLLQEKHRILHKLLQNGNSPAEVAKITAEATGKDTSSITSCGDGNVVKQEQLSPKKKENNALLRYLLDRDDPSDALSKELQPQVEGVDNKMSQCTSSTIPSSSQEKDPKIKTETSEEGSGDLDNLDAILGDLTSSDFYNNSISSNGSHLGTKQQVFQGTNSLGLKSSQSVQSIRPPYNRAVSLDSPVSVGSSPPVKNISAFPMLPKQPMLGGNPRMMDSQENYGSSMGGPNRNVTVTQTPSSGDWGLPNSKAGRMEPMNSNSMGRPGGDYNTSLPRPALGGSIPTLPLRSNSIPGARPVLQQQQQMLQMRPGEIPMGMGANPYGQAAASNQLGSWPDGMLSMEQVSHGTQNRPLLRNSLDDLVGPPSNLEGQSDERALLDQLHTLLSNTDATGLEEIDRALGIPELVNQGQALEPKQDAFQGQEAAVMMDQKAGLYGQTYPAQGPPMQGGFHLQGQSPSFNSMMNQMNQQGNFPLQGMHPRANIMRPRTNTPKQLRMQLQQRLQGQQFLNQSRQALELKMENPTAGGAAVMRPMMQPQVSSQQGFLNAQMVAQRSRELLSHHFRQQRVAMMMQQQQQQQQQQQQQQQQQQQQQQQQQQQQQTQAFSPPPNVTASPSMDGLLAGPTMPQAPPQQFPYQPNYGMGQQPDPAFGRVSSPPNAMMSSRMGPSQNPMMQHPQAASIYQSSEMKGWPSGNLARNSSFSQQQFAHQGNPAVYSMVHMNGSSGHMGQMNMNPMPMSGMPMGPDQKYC
Peroxisome proliferator-activated receptor gamma/Nuclear receptor coactivator 1, sequence (P37231 whole entry): as the sequence (P37231 whole entry) above
Peroxisome proliferator-activated receptor gamma/Nuclear receptor coactivator 1, sequence (Q15788 whole entry, further chain): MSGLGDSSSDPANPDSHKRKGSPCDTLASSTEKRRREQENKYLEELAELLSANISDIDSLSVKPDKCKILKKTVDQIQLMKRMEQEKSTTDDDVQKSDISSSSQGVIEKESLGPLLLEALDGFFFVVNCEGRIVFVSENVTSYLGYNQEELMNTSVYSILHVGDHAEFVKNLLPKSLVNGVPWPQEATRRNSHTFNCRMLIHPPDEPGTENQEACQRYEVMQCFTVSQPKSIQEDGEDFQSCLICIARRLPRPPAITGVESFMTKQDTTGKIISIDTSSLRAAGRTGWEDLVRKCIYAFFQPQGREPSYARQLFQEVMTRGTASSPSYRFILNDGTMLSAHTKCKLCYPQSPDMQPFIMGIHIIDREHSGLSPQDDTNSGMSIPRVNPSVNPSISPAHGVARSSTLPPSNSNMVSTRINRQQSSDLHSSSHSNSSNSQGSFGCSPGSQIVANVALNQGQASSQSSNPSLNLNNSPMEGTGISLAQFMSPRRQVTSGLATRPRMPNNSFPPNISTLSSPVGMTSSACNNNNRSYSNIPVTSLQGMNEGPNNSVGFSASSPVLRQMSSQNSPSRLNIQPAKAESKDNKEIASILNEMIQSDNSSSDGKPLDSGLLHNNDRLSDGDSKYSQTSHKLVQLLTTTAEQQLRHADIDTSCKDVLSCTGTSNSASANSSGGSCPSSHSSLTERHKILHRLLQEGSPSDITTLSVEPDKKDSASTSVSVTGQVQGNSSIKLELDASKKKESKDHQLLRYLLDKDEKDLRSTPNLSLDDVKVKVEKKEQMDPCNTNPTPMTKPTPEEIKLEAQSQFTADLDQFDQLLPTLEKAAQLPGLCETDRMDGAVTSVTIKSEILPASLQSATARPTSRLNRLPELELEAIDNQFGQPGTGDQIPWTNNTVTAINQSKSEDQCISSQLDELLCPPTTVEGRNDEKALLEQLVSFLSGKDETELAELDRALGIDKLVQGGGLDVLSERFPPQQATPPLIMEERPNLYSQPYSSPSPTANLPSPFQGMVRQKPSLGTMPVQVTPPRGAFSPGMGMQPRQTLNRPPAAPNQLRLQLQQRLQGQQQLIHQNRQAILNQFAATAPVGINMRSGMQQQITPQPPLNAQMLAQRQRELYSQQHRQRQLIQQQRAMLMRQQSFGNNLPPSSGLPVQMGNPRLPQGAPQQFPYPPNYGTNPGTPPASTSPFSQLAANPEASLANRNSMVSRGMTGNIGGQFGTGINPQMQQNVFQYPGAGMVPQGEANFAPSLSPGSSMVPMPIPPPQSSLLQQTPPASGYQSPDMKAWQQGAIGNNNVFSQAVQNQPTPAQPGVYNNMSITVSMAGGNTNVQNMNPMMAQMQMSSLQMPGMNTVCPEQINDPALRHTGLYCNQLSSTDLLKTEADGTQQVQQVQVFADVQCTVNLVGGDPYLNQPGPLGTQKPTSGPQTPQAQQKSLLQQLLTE

## Cc1cc(C)c(S(=O)(=O)N2CCCCC2)cc1N(C)S(=O)(=O)c1ccc(Cl)cc1
[1]
  AC50: 7.77 µM (active)
Mucolipin-3
  EC50: 1.37 µM (active)
[2]
  AC50: 5.6 µM (active)
[3]
  AC50: 11.2 µM (active)
[4]
  AC50: 8.27 µM (active)
Ion channel NompC
  EC50: > 29.9 µM (not active)

## Nc1ccc(Cc2nc3cc4ccccc4cc3[nH]2)cc1
[5]
  CC50: > 50 µM (active)
cells
  IC50: 15.1 µM (active)

## CCCOc1cc(N(CC)CC)ccc1/C=C(/C#N)c1nc2cc(C)ccc2[nH]1
[6]
  EC50: 937 nM (active)
[7]
  EC50: > 79.4 µM (not active)
[8]
  IC50: 573 nM (active)
[9]
  EC50: > 60 µM (not active)
Streptococcus
  EC50: > 150 µM (not active)
[10]
  EC50: > 79.4 µM (not active)
Streptokinase A
  EC50: 31.9 µM (active)
[11]
  EC50: > 79.4 µM (not active)
[12]
  EC50: 1.19 µM (active)
[13]
  EC50: 41.5 µM (active)

## O=C(c1cccc(COc2ccc(Cl)cc2Cl)c1)N1CCN(c2ccccn2)CC1
[14]
  EC50: < 100 nM (inconclusive)
[15]
  EC50: 251 nM (active)
[16]
  EC50: 242 nM (active)
[17]
  IC50: > 50 µM (not active)
[18]
  EC50: 46.5 µM (active)
[19]
  EC50: 275 nM (active)
HT-1080
  EC50: > 50 µM (not active)
